Some results are limits rather than exact numbers.

In one series the target is P2RY5 receptor (Homo sapiens, UniProt P43657, DEL128-129/DEL256-257/Q258T). Nature of the series: Tango P2RY5 U2OS beta-lactamase reporter assay. It is filed as cell-based. As to the method: The Tango™ P2RY5 U2OS antibiotic selected pool cells were plated at 10,000 cells/well into a 384 well clear bottom assay plate in Freestyle™ media. FBS (Fetal Bovine 20%) or a PMA concentration dilution series (in Freestyle™ media) was then added to the plate at the indicated concentrations. The plate was placed at 37° C. 5% CO2 for 24 hours for receptor stimulation followed by betalactamase substrate loading for 2 hours. (The P2RY5 cells were also tested with a 48 hour stimulation time with equivalent results.)
(§1) The antibiotic selected Tango™ P2RY5 U2OS cells were cultured to 80-90% confluence in tissueculture flasks. The growth media was then removed and replaced with Freestyle™ media either with (stimulated) or without (un-stimulated) 20% FBS. The cultures were then placed at 37° C. 5% CO2 for 48 hours for receptor stimulation followed by beta-lactamase substrate loading for 2 hours. Responsive cells were then sorted by FACS into a single pool and three 96 well plates of clones.
The Tango™ P2RY5 U2OS cells were plated at 10,000 cells/well into a 384 well clear bottom assay plate in Freestyle™ media. FBS was then added to half the wells in the assay to a concentration of 20% (stimulated) while the other half of the assay received an equal volume of Freestyle™ Media (un-stimulated). The plate was placed at 37° C. 5% CO2 for 48 hours for receptor stimulation followed by betalactamase substrate loading for 2 hours.
as §1, with “selected FACS sorted responsive cell” for “selected”, “U2OS Pool was” for “U2OS cells were”, “in two tissue culture” for “in tissueculture”, “a green cell pool from the un-stimulated cell sample, and into a blue cell” for “a single”, “of clones from the FBS stimulated sample.” for “of clones.”
The Tango™ P2RY5 U2OS sorted pool cells were plated at 10,000 cells/well into a 384 well clear bottom assay plate in FreeStyle™ media. The dFBS was immediately added to plate to final concentration of 20% by volume (stimulated). An equal volume of Free Style™ media was added to the un-stimulated wells. The plate was placed at 37° C. 5% CO2 for 48 hrs for receptor stimulation followed by beta-lactamase substrate loading for 2 hours.
The Tango™ P2RY5 U2OS sorted pool cells were plated at 10,000 cells/well into a 384 well clear bottom assay plate in FreeStyle™ media. The plate was placed at 37° C. […]

Series [1] deals with Tango™ P2RY5 U2OS Clone 10F cells. Nature of the series: Cell death at high PMA concentrations in the Tango P2RY5 assay. It is filed as cell-based. As to the method: The Tango™ P2RY5 U2OS Clone 10F cells were plated at 10,000 cells/well into a 384 well clear bottom assay plate in 32 μl/well Freestyle™ medium. 4 μl/well 10× DMSO in Freestyle™ medium was then added to the wells of the assay plate to bring the final DMSO concentration in the wells to 0% (no DMSO), 0.1%, 0.5% or 1.0% DMSO. 4 μl/well PMA (10× in Freestyle™ medium) was immediately added to the plate to the indicated concentrations. The plate was placed at 37° C./5% CO2 for 18 hours for receptor stimulation followed by beta-lactamase substrate loading for 2 hours.
The Tango™ P2RY5 U2OS Clone 10F cells were plated at 10,000 cells/well into two 384 well clear bottom assay plate in 32 μl/well Freestyle™ medium. One plate was placed at 37° C./5% CO2 for 18 hours prior to PMA stimulation for 5 hours while PMA was immediately added to the other plate for an 18 hours stimulation. At the time of stimulation 4 μl/well of a 10× stock of DMSO in Freestyle™ medium was added to the wells of the assay plate to bring the final DMSO concentration in the wells to 0.1% DMSO. 4 μl/well PMA (10× in Freestyle™ medium) was then added to the plate to the indicated concentrations. The plates were placed at 37° C./5% CO2 for 5 or 18 hours for receptor stimulation followed by beta-lactamase substrate loading for 2 h.
Tango™ P2RY5 U2OS clone 10F cells were cryopreserved at 2.5×10̂6 cells/ml in Recovery™ freezing medium in liquid nitrogen for several days. The cells were thawed into Freestyle™ assay medium prior to use in the assay. The Tango™ P2RY5 U2OS Clone 10F cells were plated at 10,000 cells/well into two 384 well clear bottom assay plate in 32 μl/well Freestyle™ medium. One plate was placed at 37° C./5% CO2 for 18 hours prior to PMA stimulation for 5 hours while PMA was immediately added to the other plate for an 18 hour stimulation. At the time of stimulation 4 μl/well of a 10× stock of DMSO in Freestyle™ medium was added to the wells of the assay plate to bring the final DMSO concentration in the wells to 0.1% DMSO. […]

Sequence of P2RY5 receptor (P43657 with tags, fused parts or gaps DEL128-129/DEL256-257/Q258T): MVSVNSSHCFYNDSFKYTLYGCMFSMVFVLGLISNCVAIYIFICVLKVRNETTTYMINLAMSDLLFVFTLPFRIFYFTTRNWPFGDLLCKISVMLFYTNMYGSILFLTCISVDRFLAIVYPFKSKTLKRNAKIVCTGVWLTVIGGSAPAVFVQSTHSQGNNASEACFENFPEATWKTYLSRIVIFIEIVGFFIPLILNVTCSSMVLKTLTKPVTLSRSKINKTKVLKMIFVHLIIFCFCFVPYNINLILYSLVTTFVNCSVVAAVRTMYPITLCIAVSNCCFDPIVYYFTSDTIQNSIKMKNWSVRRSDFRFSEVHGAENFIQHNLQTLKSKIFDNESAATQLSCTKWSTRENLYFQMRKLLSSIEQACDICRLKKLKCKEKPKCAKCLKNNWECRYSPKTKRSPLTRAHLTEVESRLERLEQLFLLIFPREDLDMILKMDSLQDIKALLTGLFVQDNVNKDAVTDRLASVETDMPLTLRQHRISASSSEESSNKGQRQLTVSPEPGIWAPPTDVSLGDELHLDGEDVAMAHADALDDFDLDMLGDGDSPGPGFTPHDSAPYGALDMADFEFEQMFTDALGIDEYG

With `CCCCCCCCCCCCCC(=O)O[C@@H]1[C@@H](C)[C@@]2(O)[C@@H](C=C(CO)C[C@]3(O)C(=O)C(C)=C[C@@H]23)[C@@H]2C(C)(C)[C@]12OC(C)=O` [PMA], the “assay window, 5 hour vs 18 hour stimulation time” value at P2RY5 receptor (Clone 10F, 5 hour stimulation, 0.1% DMSO) is reported as “larger assay window than the 18 hour stimulation time”. Moreover, the “response to PMA, cryopreserved vs dividing cells” value at P2RY5 receptor (Clone 10F, cryopreserved cells, 5 or 18 hours stimulation) is on record as “slightly less potent response”. In addition, the “beta-lactamase response through the P2RY5 receptor” value on P2RY5 receptor (Green sort pool, 5 hours stimulation) is reported as “slight inducible beta-lactamase response”; on P2RY5 receptor (sorted clones, 18 hours stimulation), “concentration dependant beta-lactamase response”. Moreover, the “PMA concentrations with cell death in the wells” value is “greater than 100 nM” in series [1] (cryopreserved cells, 18 hours stimulation); greater than 1 µM in series [1] (dividing cells, 5 hour stimulation); “greater than 100 nM” in series [1] (dividing cells, 18 hour stimulation).

Values taken from US20110189199A1, “METHODS FOR P2RY5 MEDIATED REGULATION OF HAIR GROWTH AND MUTANTS THEREOF” (priority 2008, published 2011).
